Data published in patent US9663514B2 (Takeda Pharmaceutical Company Limited, priority 2011, dated 2017).

target: T1, SYK (Homo sapiens, UniProt P43405); experiment: SYK inhibition: in vitro assay of SYK-mediated phosphorylation of FAM-labeled substrate (Caliper LC-3000); type: biochemical; details: SYK kinase domain (residues 356-635); 2.4 nM SYK and 45 μM ATP, 3 μM 5FAM-KKKKEEIYFFFG-NH2, RT 60 min, pH 7.3; pIC50 = −log(IC50), IC50 molar
T1 construct: The SYK kinase domain (residues 356-635) is amplified via PCR; made in house; host or cells: Sf9 insect cells (baculovirus, pFastBac1)
Procedure: The ability of compounds to inhibit SYK activity may be assessed using a variety of methods, including in vitro and in vivo assays. The following in vitro assay measures a test compound's ability to inhibit SYK-mediated phosphorylation of a FAM-labeled SYK-specific substrate (5FAM-KKKKEEIYFFFG-NH2).
SYK protein is prepared from cDNA encoding human spleen tyrosine kinase and is expressed in insect cells using a baculovirus expression vector. The cDNA (IMAGE: 3542895) is purchased from Open Biosystems. The SYK kinase domain (residues 356-635) is amplified via PCR and cloned into plasmid pFastBacl (Invitrogen) at BamHI/XbaI sites. Recombinant plasmid encoding Met-Ala-Lys-SYK(356-635)-HHHHHH is sequenced and transformed into E. coli DH10Bac strain. The recombinant bacmid DNA is isolated and transfected into Sf9 insect cells. Recombinant virus is harvested 72 h after transfection. High titer viral stock is prepared by infecting Sf9 cells at a multiplicity of infection (MOI) of approximately 0.01. A suspension of Sf9 cells (10 L) is infected with recombinant virus (MOI=5) and is incubated in a Wave Bioreactor (GE-Healthcare) for 48 h. The cells are harvested and stored at −80° C.
To purify the expressed protein, the frozen Sf9 cells (10 L) are broken into small (<1 cm) particles and suspended in a lysis buffer (300 mL) containing 20 mM Tris (pH 7.6), 0.25 mM TCEP, 100 mM NaCl, 5% glycerol and a protease inhibitor. The suspension is stirred at RT until completely thawed, lysed an additional 2-4 min on a rotary blade homogenizer, and then centrifuged at 4200 g for 1 h. Following centrifugation, the supernatant is poured through cheese cloth and combined with a nickel chelating resin (Probond Resin™, Invitrogen) which is pre-equilibrated in a wash buffer containing 10 mM Tris (pH 7.6), 0.25 mM TCEP, 300 mM NaCl, 5% glycerol, and 20 mM imidazole. The mixture is agitated for 3 h in a cold room and then centrifuged at 900 g for 10 min. The resin is dispersed in wash buffer (50 mL), centrifuged for 10 min at 900 g, re-dispersed in a small amount of wash buffer (5 mL), and then pour into a disposable Poly-Prep chromatography column, through which wash buffer is passed by gravity until no protein is observed in coomassie buffer (about 120 mL of wash buffer). An elution buffer (30 mL) containing 10 mM HEPES (pH 7.4), 150 mM NaCl, 10% glycerol, 5 mM DTT, and 400 mM imidazole is used to elute the SYK protein from the resin. The eluate is concentrated (5 mL) and further purified on a Superdex 200 column (1.2 mL/min for 160 min, 10 mM HEPES (pH 7.4), 10 mM NaCl, 10 mM MgCl, 0.1 mM EDTA, and 0.25 mM TCEP). The chromatographed fractions are run on SDS-PAGE and the requisite fractions are pooled and concentrated. Final delivery buffer is 10 mM HEPES (pH 7.4), 10 mM Methione, 150 mM NaCl, 10% glycerol, 5 mM DTT.
SYK inhibition is determined using a black 384 well plate format in buffer containing 50 mM HEPES, 10 mM NaCl, 10 mM MgCl2, 0.2 mM EDTA, 0.01% EDA (Brij®35), 1 mM DTT, and 0.1 mg/ml BSA at pH 7.3. Each test compound is prepared in DMSO using 2-fold serial dilutions for 11 data points, which are added to the buffer so that each dilution contains 3% DMSO. To each well is added 2 μL of 3 μM SFAM-KKKKEEIYFFFG-NH2 (in buffer), 2 μL of diluted test compound (3% DMSO in buffer), and 2 μL of 2.4 nM SYK and 45 μM ATP (in buffer). The reaction mixture is incubated at RT for 60 min, and quenched by adding 50 mM Hepes, 30 mM EDTA, 0.1% Triton X-100 (pH 7.3). To quantify the fluorescent-labeled substrate and product following reaction, the test plate is loaded on a Caliper LC-3000, which measures percent of conversion by microfluidic-based separation. Corresponding IC50 values are calculated by non-linear curve fitting of the compound concentrations and percent of inhibition to the standard IC50 equation and reported as pIC50, i.e., −log(IC50), where IC50 is molar concentration.

Row | IC50 [nM] | SMILES
1 | 0.631 | Cc1c2sc(-c3nc(N[C@@H]4CCCC[C@@H]4N)c(F)c4c3C(=O)NC4)cc2nn1C [Example 33, 6-((1R,2S)-2-Aminocyclohexylamino)-4-(2,3-dimethyl-2H-thieno[3,2-c]pyrazol-5-yl)-7-fluoro-1H-pyrrolo[3,4-c]pyridin-3(2H)-one]
2 | 2 | CCOC(=O)c1ccn2cc(-c3nc(N[C@@H]4CCOC[C@@H]4N)c(F)c4c3C(=O)NC4)cc2c1 [Example 39, Ethyl 2-(6-((3R,4R)-3-Aminotetrahydro-2H-pyran-4-ylamino)-7-fluoro-3-oxo-2,3-dihydro-1H-pyrrolo[3,4-c]pyridin-4-yl)indolizine-7-carboxylate]
3 | 0.2 | N[C@H]1COCC[C@H]1Nc1nc(-c2cc3cc(C(=O)O)ccn3c2)c2c(c1F)CNC2=O [Example 40, 2-(6-((3R,4R)-3-Aminotetrahydro-2H-pyran-4-ylamino)-7-fluoro-3-oxo-2,3-dihydro-1H-pyrrolo[3,4-c]pyridin-4-yl)indolizine-7-carboxylic acid]
4 | 63.1 | N[C@H]1CCCC[C@H]1Nc1nc(C#Cc2ccccc2)c2c(c1F)CNC2=O [Example 43, 6-((1R,2S)-2-Aminocyclohexylamino)-7-fluoro-4-(phenylethynyl)-1H-pyrrolo[3,4-c]pyridin-3(2H)-one]
5 | 0.1 | Cn1ncc2sc(-c3nc(N[C@@H]4CCCC[C@@H]4N)c(F)c4c3C(=O)NC4)cc21 [Example 29, 6-((1R,2S)-2-Aminocyclohexylamino)-7-fluoro-4-(1-methyl-1H-thieno[3,2-c]pyrazol-5-yl)-1H-pyrrolo[3,4-c]pyridin-3(2H)-one]
6 | 0.316 | N[C@H]1CCCC[C@H]1Nc1nc(-c2cc3cc(F)ccc3s2)c2c(c1F)CNC2=O [Example 16, 6-(((1R,2S)-2-Aminocyclohexyl)amino)-7-fluoro-4-(5-fluorobenzo[b]thiophen-2-yl)-1H-pyrrolo[3,4-c]pyridin-3(2H)-one]
7 | 15.8 | Cc1cc(-c2nc(N[C@@H]3CCOC[C@@H]3N)c(F)c3c2C(=O)N[C@@H]3C)sn1 [Example 56, (R)-6-(((3R,4R)-3-Aminotetrahydro-2H-pyran-4-yl)amino)-7-fluoro-1-methyl-4-(3-methylisothiazol-5-yl)-1H-pyrrolo[3,4-c]pyridin-3(2H)-one]
8 | 39.8 | C[C@H]1NC(=O)c2c(-c3cnn4ccc(F)cc34)nc(N[C@@H]3CCCC[C@@H]3N)c(F)c21 [Example 52, (R)-6-(((1R,2S)-2-Aminocyclohexyl)amino)-7-fluoro-4-(5-fluoropyrazolo[1,5-a]pyridin-3-yl)-1-methyl-1H-pyrrolo[3,4-c]pyridin-3(2H)-one]
9 | 100 | Cc1cc(-c2nc(N[C@@H]3CCOC[C@@H]3N)c(F)c3c2C(=O)N[C@H]3C)sn1 [Example 57, (S)-6-(((3R,4R)-3-Aminotetrahydro-2H-pyran-4-yl)amino)-7-fluoro-1-methyl-4-(3-methylisothiazol-5-yl)-1H-pyrrolo[3,4-c]pyridin-3(2H)-one]
10 | 63.1 | N[C@H]1COCC[C@H]1Nc1nc(C#Cc2ccccc2)c2c(c1F)CNC2=O [Example 44, 6-((3R,4R)-3-Aminotetrahydro-2H-pyran-4-ylamino)-7-fluoro-4-(phenylethynyl)-1H-pyrrolo[3,4-c]pyridin-3(2H)-one]
11 | 20 | N#Cc1ccc(-c2nc(N[C@@H]3CCOC[C@@H]3N)c(F)c3c2C(=O)NC3)s1 [Example 8, 5-(6-((3R,4R)-3-Aminotetrahydro-2H-pyran-4-ylamino)-7-fluoro-3-oxo-2,3-dihydro-1H-pyrrolo[3,4-c]pyridin-4-yl)thiophene-2-carbonitrile]
